Data published in EP0481522B1, “Novel mercaptoacetylamide derivatives useful as inhibitors of enkephalinase and ace” (MERRELL PHARMACEUTICALS INC., priority 1990, dated 1992).

Assays:
Enkephalinase = target: T1, Enkephalinase (Rattus norvegicus, UniProt P07861); experiment: Enkephalinase inhibition, fluorometric enzyme assay; type: biochemical; details: enzyme partially purified from rat kidney; 12 µM dansyl-D-AlaGly(p-nitro)PheGly, 50mM HEPES buffer (pH 7.4), 25°C
T1 construct: The enzyme is extracted from the microvilli fraction by using Triton X-100; from tissue; host or cells: rat kidney, microvilli fraction
T1 sequence (P07861 1-750): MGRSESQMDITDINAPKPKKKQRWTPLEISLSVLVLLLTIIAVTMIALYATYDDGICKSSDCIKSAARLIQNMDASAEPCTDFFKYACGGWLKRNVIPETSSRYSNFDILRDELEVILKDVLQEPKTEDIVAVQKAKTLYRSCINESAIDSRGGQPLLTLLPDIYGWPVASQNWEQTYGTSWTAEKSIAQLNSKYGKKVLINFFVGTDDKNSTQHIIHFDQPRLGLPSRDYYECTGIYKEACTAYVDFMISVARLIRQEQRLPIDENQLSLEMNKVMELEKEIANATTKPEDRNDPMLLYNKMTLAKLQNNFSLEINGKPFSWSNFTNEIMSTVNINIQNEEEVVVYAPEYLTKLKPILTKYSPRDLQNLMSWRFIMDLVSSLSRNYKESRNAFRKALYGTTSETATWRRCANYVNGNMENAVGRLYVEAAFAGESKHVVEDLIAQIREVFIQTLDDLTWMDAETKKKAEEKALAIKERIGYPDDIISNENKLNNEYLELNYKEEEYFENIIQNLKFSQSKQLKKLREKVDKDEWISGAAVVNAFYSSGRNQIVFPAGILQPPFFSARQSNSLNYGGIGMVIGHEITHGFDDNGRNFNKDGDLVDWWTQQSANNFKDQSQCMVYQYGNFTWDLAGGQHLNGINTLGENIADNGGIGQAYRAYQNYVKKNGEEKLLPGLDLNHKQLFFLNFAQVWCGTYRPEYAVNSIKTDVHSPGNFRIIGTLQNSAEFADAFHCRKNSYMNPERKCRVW
Description: Enkephalinase is partially purified from rat kidney. The enzyme is extracted from the microvilli fraction by using Triton X-100 according to the method of Malfroy and Schwartz [J.Biol.Chem. 259, 14365-14370 (1984)] or by using proteolytic treatment according to the method of Almenoff and Orlowski [Biochem. 22, 590-599 (1983)]. The enzyme is further purified by anion exchange chromatography (Mono QTM column, Pharmacia) using a Pharmacia FPLC system. The enzyme activity may be measured by the fluorometric methods of Florentin et al. [Anal.Biochem. 141, 62-69 (1984)] or of Almenoff and Orlowski [J.Neurochemistry 42, 151-157 (1984)]. […] The substrate (and inhibitor) is added from a concentrated stock soluticn in DMSO (up to 0.1 mL DMSO final volume). The enzyme in a small volume (approximately 0.1 μg of FPLC purified protein) is added to initiate the reaction and the rate of fluorescense increase is recorded continuously using a fluorometer (excitation at 339nm, emission at 562nm).

ACE = ACE (Homo sapiens, UniProt P12821); experiment: ACE inhibition, spectrophotometric enzyme assay; type: biochemical; details: spectrophotometric substrate of Holmquist et al., buffer system of Ryan
ACE, sequence (P12821 30-1306, species assumed): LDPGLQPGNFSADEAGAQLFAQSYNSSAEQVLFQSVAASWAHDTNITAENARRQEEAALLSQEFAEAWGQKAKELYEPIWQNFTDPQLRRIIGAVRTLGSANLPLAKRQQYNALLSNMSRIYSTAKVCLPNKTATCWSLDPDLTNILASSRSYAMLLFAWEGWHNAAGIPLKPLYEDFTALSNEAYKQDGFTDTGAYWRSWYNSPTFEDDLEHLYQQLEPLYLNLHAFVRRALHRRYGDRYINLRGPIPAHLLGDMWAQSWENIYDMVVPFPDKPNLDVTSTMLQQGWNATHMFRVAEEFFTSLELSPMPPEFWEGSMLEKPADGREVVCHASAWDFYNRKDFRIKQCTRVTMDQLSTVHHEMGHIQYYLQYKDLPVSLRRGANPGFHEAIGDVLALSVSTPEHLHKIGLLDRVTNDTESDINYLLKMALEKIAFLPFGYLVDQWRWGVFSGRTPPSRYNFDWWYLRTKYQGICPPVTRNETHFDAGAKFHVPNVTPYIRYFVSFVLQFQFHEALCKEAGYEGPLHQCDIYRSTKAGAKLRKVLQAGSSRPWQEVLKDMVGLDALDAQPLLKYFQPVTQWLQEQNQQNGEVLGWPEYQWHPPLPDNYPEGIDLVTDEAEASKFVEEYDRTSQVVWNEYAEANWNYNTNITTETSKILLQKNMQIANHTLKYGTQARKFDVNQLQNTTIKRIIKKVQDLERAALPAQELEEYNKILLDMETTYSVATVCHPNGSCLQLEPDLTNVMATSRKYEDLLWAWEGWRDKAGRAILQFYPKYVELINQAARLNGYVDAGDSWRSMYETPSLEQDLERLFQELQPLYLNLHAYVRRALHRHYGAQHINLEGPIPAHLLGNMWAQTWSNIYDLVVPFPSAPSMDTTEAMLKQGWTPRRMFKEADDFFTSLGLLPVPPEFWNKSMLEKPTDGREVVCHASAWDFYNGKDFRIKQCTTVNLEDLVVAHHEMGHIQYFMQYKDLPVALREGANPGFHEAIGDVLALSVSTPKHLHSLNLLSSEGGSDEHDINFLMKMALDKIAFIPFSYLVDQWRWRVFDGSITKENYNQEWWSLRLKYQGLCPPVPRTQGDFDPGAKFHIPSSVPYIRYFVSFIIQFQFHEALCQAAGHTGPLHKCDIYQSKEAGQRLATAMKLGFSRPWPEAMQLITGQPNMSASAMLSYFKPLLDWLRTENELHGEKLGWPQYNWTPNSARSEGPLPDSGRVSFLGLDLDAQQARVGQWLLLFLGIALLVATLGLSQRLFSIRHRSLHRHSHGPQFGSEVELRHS
Description: The enzymatic activity of ACE is monitored using the spectrophotometric substrate described by Holmquist et al. [Anal.Biochem. 95, 540-548 (1979)] and the buffer system described by Ryan [Methods of Enzymatic Analysis, 3rd ed., H. U. Bergmeyer, editor; vol. V, Verlag Chemie, Weinheim, 1983, pp. 20-34].

Ki (Enkephalinase)	Ki (ACE)	Compound
< 1 nM	0.74 nM	O=C(N[C@H]1Cc2ccccc2[C@H]2CCC[C@@H](C(=O)O)N2C1=O)[C@@H](S)Cc1ccccc1 (relative stereo) [100,173, [4S-[4α, 7α(R*), 12bβ]]-7-[(1-oxo-2(S)-thio-3-phenylpropyl)amino]-1,2,3,4,6,7,8,12b-octahydro-6-oxo-pyrido[2,1-a][2]benzazepine-4-carboxylic acid]
< 1 nM	< 7 nM	O=C(N[C@H]1Cc2ccccc2[C@H]2COC[C@@H](C(=O)O)N2C1=O)[C@@H](S)Cc1ccccc1 (relative stereo) [101,519, [4S-[4α, 7α(R*), 12bβ]]-7-[(1-Oxo-2(S)-thio-3-phenylpropyl)amino]-1,2,3,4,6,7,8,12b-hexahydro-6-oxo-1 H-[1,4]-oxazino[3,4-a][2]benzazepine-4-carboxylic acid]
8 nM	5 nM	O=C(CS)N[C@H]1Cc2ccccc2[C@H]2CCC[C@@H](C(=O)O)N2C1=O (relative stereo) [27,855, [4S-[4α, 7α(R*), 12bβ]]-7-[(1-oxo-2-thio-ethyl)amino]-1,2,3,4,6,7,8,12b-octahydro-6-oxo-pyrido[2,1-a][2]benzazepine-4-carboxylic acid]
< 1 nM	6.7 nM	O=C(N[C@H]1Cc2ccccc2[C@H]2CCC[C@@H](C(=O)O)N2C1=O)[C@H](S)Cc1ccccc1 (relative stereo) [101,628, [4S-[4α, 7α(R*), 12bβ]]-7-[(1-Oxo-2(R)-thio-3-phenylpropyl)amino]-1,2,3,4,6,7,8,12b-octahydro-6-oxo-pyrido[2,1-a][2]benzazepine-4-carboxylic acid]
1 nM	2.1 nM	O=C(N[C@H]1Cc2ccccc2[C@H]2CCC[C@@H](C(=O)O)N2C1=O)C(S)c1ccccc1 (relative stereo) [101,804, [4S-[4α, 7α(R*), 12bβ]]-7-[(1-Oxo-2-thio-2-phenylethyl)amino]-1,2,3,4,6,7,8,12b-octahydro-6-oxo-pyrido[2,1-a][2]benzazepine-4-carboxylic acid]
< 1 nM	1 nM	O=C(N[C@H]1Cc2ccccc2[C@H]2CC[C@@H](C(=O)O)N2C1=O)[C@H](S)Cc1ccccc1 (relative stereo) [100,919, [6α(R*), 11bβ]-6-[(S)-(1-oxo-2(R)-thio-3-phenylpropyl)amino]-1,2,3,5,6,7,11b-heptahydro-5-oxo-pyrrolo[2,1-a][2]benzazepine-3(S)-carboxylic acid]
< 1 nM	< 7 nM	CC(=O)S[C@@H](Cc1ccccc1)C(=O)N[C@H]1Cc2ccccc2[C@H]2COC[C@@H](C(=O)O)N2C1=O (relative stereo) [102,179, [4S-[4α, 7α(R*), 12bβ]]-7-[(1-Oxo-2(S)-acetylthio-3-phenylpropyl)amino]-1,2,3,4,6,7,8,12b-hexahydro-6-oxo-1H-[1,4]oxazino[3,4-a][2]benzazepine-4-carboxylic acid]
